What all share (type): in vivo
In data set [1] the test system is tobacco budworm (Heliothis virescens). The experiment in a line: B.1 Tobacco budworm, 96-well microtiter plate diet test with eggs. Conditions: for mortality at 100 ppm: comparative experiment C.6; for mortality at 2500 ppm: 120 h, egg and larval mortality after 5 days, read-out: mortality in comparison with untreated controls; for mortality at 274 ppm: comparative experiment C.9. How it is done: (§1) If not otherwise specified, the test solutions were prepared as follow: The active compound was dissolved at the desired concentration in a mixture of 1:1 (vol:vol) distilled water:acetone. The test solution was prepared on the day of use.
B.1 Tobacco Budworm (Heliothis virescens)
For evaluating control of tobacco budworm (Heliothis virescens) the test unit consisted of 96-well-microtiter plates containing an insect diet and 15-25 H. virescens eggs.
The compounds were formulated using a solution containing 75% v/v water and 25% v/v DMSO. Different concentrations of formulated compounds were sprayed onto the insect diet at 10 μl, using a custom-built micro atomizer, at two replications.
After application, microtiter plates were incubated at about 28±1° C. and about 80±5% relative humidity for 5 days. Egg and larval mortality was then visually assessed.

In data set [2] the test system is boll weevil (Anthonomus grandis). The experiment in a line: B.2 Boll weevil, 96-well microtiter plate diet test with eggs. The conditions noted are these: for mortality at 2500 ppm: 120 h, egg and larval mortality after 5 days, read-out: mortality in comparison with untreated controls; for mortality at 9.9 ppm: comparative experiment C.9. On the procedure: as §1
B.2 Boll Weevil (Anthonomus grandis)
For evaluating control of boll weevil (Anthonomus grandis) the test unit consisted of 96-well-microtiter plates containing an insect diet and 5-10 A. grandis eggs.
The compounds were formulated using a solution containing 75% v/v water and 25% v/v DMSO. Different concentrations of formulated compounds were sprayed onto the insect diet at 5 μl, using a custom-built micro atomizer, at two replications.
After application, microtiter plates were incubated at about 25±1° C. and about 75±5% relative humidity for 5 days. Egg and larval mortality was then visually assessed.

The subject of data set [3] is yellow fever mosquito (Aedes aegypti). The experiment in a line: whole plant or invertebrate. Conditions: for mortality at 2500 ppm: 48 h, larval mortality after 2 days, read-out: mortality in comparison with untreated controls. On the procedure: as §1
B.5 Yellow Fever Mosquito (Aedes aegypti)
For evaluating control of yellow fever mosquito (Aedes aegypti) the test unit consisted of 96-well-microtiter plates containing 200 μl of tap water per well and 5-15 freshly hatched A. aegypti larvae.
The active compounds were formulated using a solution containing 75% (v/v) water and 25% (v/v) DMSO. Different concentrations of formulated compounds or mixtures were sprayed onto the insect diet at 2.5 μl, using a custom-built micro atomizer, at two replications.
After application, microtiter plates were incubated at 281° C., 80±5% RH for 2 days. Larval mortality was then visually assessed.

For data set [4], the system named is green peach aphid (Myzus persicae). The experiment in a line: B.6 Green peach aphid, systemic test with artificial diet under membrane. On the procedure: as §1
B.6 Green Peach Aphid (Myzus persicae)
For evaluating control of green peach aphid (Myzus persicae) through systemic means, the test unit consisted of 96-well-microtiter plates containing liquid artificial diet under an artificial membrane.
The compounds were formulated using a solution containing 75% v/v water and 25% v/v DMSO. Different concentrations of formulated compounds were pipetted into the aphid diet, using a custom built pipetter, at two replications.
After application, 5-8 adult aphids were placed on the artificial membrane inside the microtiter plate wells. The aphids were then allowed to suck on the treated aphid diet and incubated at about 23±1° C. and about 50±5% relative humidity for 3 days. Aphid mortality and fecundity was then visually assessed.

In data set [5] the test system is Southern armyworm (Spodoptera eridania), 2nd instar larvae. The experiment in a line: B.3 Southern armyworm, 2nd instar larvae, foliar spray on lima bean plants. Conditions: 96 h, 4 days after treatment, read-out: mortality in comparison with untreated controls. On the procedure:
B.3 Southern Armyworm (Spodoptera eridania), 2nd Instar Larvae
The active compounds were formulated by a Tecan liquid handler in 100% cyclohexanone as a 10,000-ppm solution supplied in tubes. The 10,000-ppm solution was serially diluted in 100% cyclohexanone to make interim solutions. These served as stock solutions for which final dilutions were made by the Tecan in 50% acetone:50% water (v/v) into 10 or 20 ml glass vials. A non-ionic surfactant (Kinetic@) was included in the solution at a volume of 0.01% (v/v). The vials were then inserted into an automated electrostatic sprayer equipped with an atomizing nozzle for application to plants/insects. Lima bean plants (variety Sieva) were grown 2 plants to a pot and selected for treatment at the 1st true leaf stage. Test solutions were sprayed onto the foliage by an auto-mated electrostatic plant sprayer equipped with an atomizing spray nozzle. The plants were dried in the sprayer fume hood and then removed from the sprayer. Each pot was placed into perforated plastic bags with a zip closure. Ten to 11 armyworm larvae were placed into the bag and the bags zipped closed. Test plants were maintained in a growth room at about 25° C. and about 20-40% relative humidity for 4 days, avoiding direct exposure to fluorescent light (14:10 light:dark photoperiod) to prevent trapping of heat inside the bags. Mortality and reduced feeding were assessed 4 days after treatment, compared to untreated control plants.

Where [6] appears, read: Anthonomus grandis, 90 ppm, comparative experiment C.7.
Where [7] appears, read: 72 h, aphid mortality after 3 days, read-out: mortality in comparison with untreated controls.
Setting [8] is: Anthonomus grandis, 90 ppm, comparative experiment C.8.
Setting [9] is: comparative experiment C.8, read-out: B.6, 2500 ppm (mortality).

The text below walks through data of patent US20260206754A1, “HETEROARYL COMPOUNDS FOR THE CONTROL OF INVERTEBRATE PESTS” (priority 2022, published 2026).

Like-named read-outs stand apart in the source and are kept apart here.

As usually defined, the mortality is the percentage killed. For `CC(NC(=O)c1cc(C(F)(F)F)cc(C(F)(F)F)c1)c1nccnc1-n1cc(S(=O)(=O)C(F)(F)F)cn1` (stereo not drawn) [I-55, 3,5-bis(trifluoromethyl)-N-[1-[3-[4-(trifluoromethylsulfonyl)pyrazol-1-yl]pyrazin-2-yl]ethyl]benzamide], the mortality at 100 ppm in data set [1] turned out to be 100%. Moreover, the mortality at 2500 ppm in data set [1], in data set [2] (Anthonomus grandis) and in data set [3] was no less than 75% throughout. Besides, the mortality at 90 ppm in data set [2] (Anthonomus grandis, 90 ppm, comparative experiment C.6) is 100%.
As for `CC(NC(=O)c1cc(C(F)(F)F)cc(C(F)(F)F)c1)c1nccnc1-n1cc(Cl)cn1` (stereo not drawn) [WO2021/069575 I-96, reference compound], the mortality at 90 ppm in data set [2] (Anthonomus grandis, 90 ppm, comparative experiment C.5) worked out at 50%. The mortality at 2500 ppm in data set [4] (comparative experiment C.5, read-out: B.6, 2500 ppm (mortality)) came to 0%. Moreover, the mortality at 80 ppm in data set [3] (80 ppm, comparative experiment C.5, read-out: B.5, 80 ppm (mortality)) was found to be 0%.
For `CC[S+]([O-])c1cnn(-c2nccnc2C(C)NC(=O)c2cc(C(F)(F)F)cc(C(F)(F)F)c2)c1` (stereo not drawn) [I-58], the mortality at 90 ppm in data set [1] (comparative experiment C.7) and in data set [2] (setting [6]) was 100% throughout. Further, the mortality at 2500 ppm in data set [1], in data set [2] (Anthonomus grandis), in data set [4] (setting [7]) and in data set [3] was no less than 75% in each case.
Take `CC(NC(=O)c1cc(C(F)(F)F)cc(C(F)(F)F)c1)c1nccnc1-n1cc(SC(F)(F)F)cn1` (stereo not drawn) [I-60, 3,5-bis(trifluoromethyl)-N-[1-[3-[4-(trifluoromethyl-sulfanyl)pyrazol-1-yl]pyrazin-2-yl]ethyl]benzamide]: the mortality at 2500 ppm in data set [1], in data set [2] (Anthonomus grandis) and in data set [3] was no less than 75% throughout. The mortality at 300 ppm in data set [5] is no less than 75%.
`CC(NC(=O)c1cc(Cl)cc(S(C)(=O)=O)c1)c1nccnc1-n1nccn1` (stereo not drawn) [WO2021/259997 I-1, reference compound] gave a mortality at 274 ppm in data set [1] of 0%. In data set [2] (Anthonomus grandis), this compound had a mortality at 9.9 ppm of 0%.
In data set [2] (setting [8]), `CC(NC(=O)c1cc(C(F)(F)F)cc(C(F)(F)F)c1)c1nccnc1-c1cn(-c2ccn(C)n2)nn1` (stereo not drawn) [WO2021/259997 I-12, reference compound] came in with a mortality at 90 ppm of 0%. Also, the mortality at 2500 ppm in data set [4] (setting [9]) was determined as 0%.
Consider `CC(NC(=O)c1cc(C(F)(F)F)cc(C(F)(F)F)c1)c1nccnc1-n1cc(S(=O)(=O)C2CC2)cn1` (stereo not drawn) [I-65, N-[1-[3-(4-cyclopropylsulfonylpyrazol-1-yl)pyrazin-2-yl]ethyl]-3,5-bis(trifluoromethyl)benzamide], for which the mortality at 2500 ppm in data set [1], in data set [2] (Anthonomus grandis), in data set [4] (setting [7]) and in data set [3] was no less than 75% throughout.
`CC(NC(=O)c1cc(C(F)(F)F)cc(C(F)(F)F)c1)c1nccc(F)c1-n1cc(S(C)(=O)=O)cn1` (stereo not drawn) [I-53, N-[1-[4-fluoro-3-(4-methylsulfonylpyrazol-1-yl)-2-pyridyl]ethyl]-3,5-bis(trifluoromethyl)benzamide]: the mortality at 2500 ppm in data set [1], in data set [2] (Anthonomus grandis) and in data set [3] was no less than 75% in each case.
On to `CC(C)Sc1cnn(-c2nccnc2C(C)NC(=O)c2cc(C(F)(F)F)cc(C(F)(F)F)c2)c1` (stereo not drawn) [I-48, N-[1-[3-(4-isopropylsulfanylpyrazol-1-yl)pyrazin-2-yl]ethyl]-3,5-bis(trifluoromethyl)benzamide], for which the mortality at 90 ppm in data set [1] (comparative experiment C.7) and in data set [2] (setting [6]) was 100% each time. Moreover, the mortality at 2500 ppm in data set [1] and in data set [2] (Anthonomus grandis) was no less than 75% throughout. Also, in data set [5], the mortality at 300 ppm is no less than 75%.
`CC(NC(=O)c1cc(C(F)(F)F)cc(C(F)(F)F)c1)c1nccnc1-n1ncc(-c2ccn(C)n2)n1` (stereo not drawn) [I-29, N-[1-[3-[4-(1-methylpyrazol-3-yl)triazol-2-yl]pyrazin-2-yl]ethyl]-3,5-bis(trifluoromethyl)benzamide]: the mortality at 2500 ppm was no less than 75% in data set [1]; no less than 75% in data set [2] (Anthonomus grandis); 100% in data set [4] (setting [9]); no less than 75% in data set [4] (setting [7]); no less than 75% in data set [3]. In data set [2] (setting [8]), this compound gave a mortality at 90 ppm of 100%.
`CC(NC(=O)c1cc(C(F)(F)F)cc(C(F)(F)F)c1)c1nccnc1-n1cc([S+]([O-])C(C)C)cn1` (stereo not drawn) [I-69, N-[1-[3-(4-isopropylsulfinylpyrazol-1-yl)pyrazin-2-yl]ethyl]-3,5-bis(trifluoromethyl)benzamide]: the mortality at 2500 ppm in data set [1], in data set [2] (Anthonomus grandis), in data set [4] (setting [7]) and in data set [3] was no less than 75% in each case.
In data set [1] (comparative experiment C.1), `Cc1cnn(-c2nccnc2C(C)NC(=O)c2cc(C(F)(F)F)cc(C(F)(F)F)c2)n1` (stereo not drawn) [WO2021/037614 P1, reference compound] registered a mortality at 90 ppm of 25%. The mortality at 30 ppm in data set [4] (comparative experiment C.1) is 25%.
For the compound `Cc1cn(-c2nccnc2C(C)NC(=O)c2cc(C(F)(F)F)cc(C(F)(F)F)c2)nn1` (stereo not drawn) [WO2021/037614 P41, reference compound], the mortality at 30 ppm in data set [2] (Anthonomus grandis, 30 ppm, comparative experiment C.3) is 0%. The compound also gave a mortality at 90 ppm in data set [4] (90 ppm, comparative experiment C.3) of 0%.
In data set [1], `CC(NC(=O)c1cc(Cl)cc(S(C)(=O)=O)c1)c1nccnc1-n1ncc(-c2ccccn2)n1` (stereo not drawn) [I-73] registered a mortality at 274 ppm of 100%. Further, the mortality at 2500 ppm in data set [1], in data set [2] (Anthonomus grandis), in data set [4] (setting [7]) and in data set [3] was no less than 75% in each case. In data set [2] (Anthonomus grandis), the mortality at 9.9 ppm was determined as 100%.
`CC(NC(=O)c1cc(C(F)(F)F)cc(C(F)(F)F)c1)c1nccnc1-n1cc(C(F)(F)F)cn1` (stereo not drawn) [WO2021/069575 I-92, reference compound]: the mortality at 100 ppm in data set [1] stood at 50%. Moreover, the “B.2, 90 ppm (mortality)” value in data set [2] (90 ppm, comparative experiment C.6) is given as 0%. For the same compound, the mortality at 90 ppm in data set [2] (Anthonomus grandis, 90 ppm, comparative experiment C.4) is 0%; in data set [3] (90 ppm, comparative experiment C.4, read-out: B.5, 90 ppm (mortality)) it was 0%. Further, the mortality at 30 ppm in data set [4] (comparative experiment C.4) is 0%.
Consider `CC(NC(=O)c1cc(C(F)(F)F)cc(C(F)(F)F)c1)c1nccc(Cl)c1-n1cc([S+](C)[O-])cn1` (stereo not drawn) [I-28, N-[1-[4-chloro-3-(4-methylsulfinylpyrazol-1-yl)-2-pyridyl]ethyl]-3,5-bis(trifluoromethyl)benzamide], for which the mortality at 300 ppm in data set [5] was no less than 75%. Further, the mortality at 2500 ppm in data set [2] (Anthonomus grandis) and in data set [4] (setting [7]) was no less than 75% in each case.
On to `CC(NC(=O)c1cc(C(F)(F)F)cc(C(F)(F)F)c1)c1nccnc1-n1cc(S(=O)(=O)C(C)C)cn1` (stereo not drawn) [I-67, N-[1-[3-(4-isopropylsulfonylpyrazol-1-yl)pyrazin-2-yl]ethyl]-3,5-bis(tri-fluoromethyl)benzamide], for which the mortality at 2500 ppm in data set [1], in data set [2] (Anthonomus grandis), in data set [4] (setting [7]) and in data set [3] was no less than 75% in each case.
